Assay [1] has as its target T1, HIV-1 RT enzyme (wild type) (Human immunodeficiency virus type 1 group M subtype B, UniProt P04585).
T1 construct: The reverse transcriptase (RT) enzyme assay has been adapted to a 96-well microtiter plate format
As to the kind of experiment: Reverse transcriptase (RT) enzymatic assay (IC50), PicoGreen fluorescence, wild type. Type of assay: biochemical. Particulars: RT enzymatic assay, wild type; read-out: IC50 WT. The method, then: (§1) Reverse Transcriptase (RT) Assays Enzymatic Assay (IC50)
The enzymatic assay employed is described as follows: The reverse transcriptase (RT) enzyme assay has been adapted to a 96-well microtiter plate format and uses PicoGreen™ as a fluorescent intercalator. More explicitly, the HIV-1 RT enzyme was thawed and appropriately diluted into Tris/HCl 50 mM pH 7.8 containing NaCl 60 mM, MgCl2∘6H2O 2 mM, DTT 6 mM, GSH 2 mM and 0.02% w/v Chaps to give ≈10 nM enzyme. […] The plate was pre-incubated for 15 minutes at room temperature before proceeding to the next step. […] Then the enzymatic reaction was initiated by addition of 20 μL of substrate solution. […] After addition of the substrate cocktail, the plate was covered with a plastic seal and incubated for 50 minutes at 37° C. in a dry incubator. The reaction was then quenched by addition of 5 μL of EDTA 0.5 M. The plate was shaken for 30 seconds at medium speed and incubated for 5 minutes at room temperature. Then 160 μL of PicoGreen™ 1:400 dilution from commercial stock (diluted in Tris 20 mM pH 7.5 with EDTA 1 mM) was added and the plate was shaken for 30 seconds and incubated for 10 minutes at room temperature. […] Each row contained at its extremities a blank and a control well.
(§2) Table legend: A=>100; B=100-50; C=<50; NT=not tested

Assay [2] has as its target T2, HIV-1 RT resistant mutant K103N/Y181C (Human immunodeficiency virus type 1 group M subtype B, UniProt P04585, K690N/Y768C).
T2 construct: The reverse transcriptase (RT) enzyme assay has been adapted to a 96-well microtiter plate format
Description: Reverse transcriptase (RT) enzymatic assay (IC50), PicoGreen fluorescence, resistant mutant. It counts as biochemical. The method, then: as §1
The enzymatic assay employed is described as follows: The reverse transcriptase (RT) enzyme assay has been adapted to a 96-well microtiter plate format and uses PicoGreen™ as a fluorescent intercalator. More explicitly, the HIV-1 RT enzyme was thawed and appropriately diluted into Tris/HCl 50 mM pH 7.8 containing NaCl 60 mM, MgCl2∘6H2O 2 mM, DTT 6 mM, GSH 2 mM and 0.02% w/v Chaps to give ≈10 nM enzyme. To 10 μL of this enzyme solution was added 10 μL of inhibitor solution (40 μM to […] inhibitor in the same assay buffer as above containing 4% v/v DMSO). The plate was pre-incubated for 15 minutes at room temperature before proceeding to the next step. In this pre-incubation step, the highest and lowest inhibitor concentrations were 20 μM and 1.016 nM respectively and the concentration of DMSO was 2% v/v. Then the enzymatic reaction was initiated by addition of 20 μL of substrate solution. The final reaction mixture contained Tris/HCl 50 mM pH 7.8, NaCl 60 mM, MgCl2∘6H2O 2 mM, DTT 6 mM, GSH 2 mM, CHAPS 0.02% w/v, DMSO 1% v/v, poly rC 45 nM, dG15 4.5 nM, dGTP 3.6 μM, and ≈2.5 nM enzyme. In this incubation step, the highest and lowest inhibitor concentrations were 10 μM and 0.508 nM respectively. After addition of the substrate cocktail, the plate was covered with a plastic seal and incubated for 50 minutes at 37° C. in a dry incubator. The reaction was then quenched by addition of 5 μL of EDTA 0.5 M. The plate was shaken for 30 seconds at medium speed and incubated for 5 minutes at room temperature. Then 160 μL of PicoGreen™ 1:400 dilution from commercial stock (diluted in Tris 20 mM pH 7.5 with EDTA 1 mM) was added and the plate was shaken for 30 seconds and incubated for 10 minutes at room temperature. The plate was then analyzed using a POLARstar Galaxy fluorimeter (BMG Labtechnologies) with λex and λem of 485 nm and 520 nm respectively. […] Each row contained at its extremities a blank and a control well.
as §2

Assay [3] has as its system HIV-1 (wild type) in C8166 LTRluc cells. Description: C8166 HIV-1 luciferase assay (EC50), wild type. It counts as cell-based. As to conditions: Human immunodeficiency virus 1, C8166 HIV-1 luciferase assay (no *).
Text: (§3) C8166 HIV-1 Luciferase Assay (EC50)
(§4) Plasmid: pGL3 Basic LTR/TAR #12
Plasmid is the pGL3 Basic Vector (a promoterless luciferase expression vector from Promega catalogue #E1751) with the addition of HIV-1 H×B2 LTR sequence from nucleotide −138 to +80 (Sca1-HindIII) upstream of the luciferase gene and the gene for blasticidine resistance cloned in.
(§5) C8166 cells are a human T-lymphotrophic virus type 1 immortalized but nonexpressing line of cord blood lymphocytes and are highly permissive to HIV-1 infection. The reporter cells were made by electroporating C8166 cells with pGL3 Basic LTR/TAR and then selecting positive clones with blasticidine. The clone C8166-LTRluc #A8-F5-G7 was selected by 3 consecutive rounds of limiting dilution under blasticidine selection.
(§6) Media: Complete media consisting of: RPMI 1640+10% FBS+10^−5 M
(§7) β-mercaptoethanol+10 μg/ml gentamycin. Cultures are maintained in complete media with 5 μg/ml blasticidine, however, selection is removed for the assay.
(§8) Luciferase Assay Protocol
Serial dilutions of HIV-1 inhibitors compounds are prepared in complete media from 10 mM DMSO stock solutions. Eleven serial dilutions of 2.5× are made at 8× desired final concentration in a 1 ml deep well titer plate (96 wells). The 12th well contains complete media with no inhibitor and serves as the positive control. All samples contain the same concentration of DMSO (≦0.1% DMSO). A 25 μl aliquot of inhibitor is added, to triplicate wells, of a 96 well tissue culture treated clear view black microtiter plate (Corning Costar catalogue # 3904). The last row is reserved for uninfected C8166 LTRluc cells to serve as the background blank control and the first row is media alone.
Count C8166 LTRluc cells and place in a minimal volume of complete RPMI 1640 in a tissue culture flask (ex. 30×10^6 cells in 10 ml media/25 cm^2 flask). Infect cells with HIV-1 at a moi of 0.005. Incubate cells for 1.5 hours at 37° C. on a rotating rack in a 5% CO2 incubator. Resuspend cells in complete RPMI to give a final concentration of 25,000-cells/175 μl. Add 175 μl of cell mix to wells of 96 well microtiter plate containing 25 μl 8× inhibitors. Add 25,000 uninfected C8166-LTRluc cells/well in 200 μl complete RPMI to last row for background control. Incubate cells at 37° C. in 5% CO2 incubator for 3 days.
(§9) Add 50 μl Steady Glo (luciferase substrate T1/2=5 hours Promega catalogue # E2520) to each well of the 96 well plate. Determine the relative light units (RLU) of luciferase using the BMG LUMlstar Galaxy luminometer. Plates are read from the bottom for 2 seconds per well with a gain of 240.
(§10) The level of inhibition (% inhibition) of each well containing inhibitor was calculated with the following equation: […]
The calculated % inhibition values were then used to determine EC50, slope factor (n) and maximum inhibition (Imax) by the non-linear regression routine NLIN procedure of SAS using the following equation: […]
The results are listed in Table 9 as IC50(nM) and EC50 (nM).
as §2

In assay [4] the test system is HIV-1 resistant mutant K103N/Y181C in C8166 LTRluc cells. As to the kind of experiment: C8166 HIV-1 luciferase assay (EC50), resistant mutant. Particulars: Human immunodeficiency virus 1, C8166, read-out: EC50 K103N/Y181C. It counts as cell-based.
Text: as §3, §4, §5, §6, §7, §8
Eleven serial dilutions of 2.5× are made at 8× desired final concentration in a 1 ml deep well titer plate (96 wells). The 12th well contains complete media with no inhibitor and serves as the positive control. All samples contain the same concentration of DMSO (≦0.1% DMSO). A 25 μl aliquot of inhibitor is added, to triplicate wells, of a 96 well tissue culture treated clear view black microtiter plate (Corning Costar catalogue # 3904). The last row is reserved for uninfected C8166 LTRluc cells to serve as the background blank control and the first row is media alone.
Count C8166 LTRluc cells and place in a minimal volume of complete RPMI 1640 in a tissue culture flask (ex. 30×10^6 cells in 10 ml media/25 cm^2 flask). […] Incubate cells for 1.5 hours at 37° C. on a rotating rack in a 5% CO2 incubator. Resuspend cells in complete RPMI to give a final concentration of 25,000-cells/175 μl. Add 175 μl of cell mix to wells of 96 well microtiter plate containing 25 μl 8× inhibitors. Add 25,000 uninfected C8166-LTRluc cells/well in 200 μl complete RPMI to last row for background control. Incubate cells at 37° C. in 5% CO2 incubator for 3 days.
as §9, §10
The calculated % inhibition values were then used to determine EC50, slope factor (n) and maximum inhibition (Imax) by the non-linear regression routine NLIN procedure of SAS using the following equation:
as §2

Bounds are passed on as bounds.

The IC50 is the concentration needed to halve the response being measured. `CCc1ccccc1-n1nnnc1SCC(=O)Nc1ccccc1[N+](=O)[O-]` [Entry 110]: the 50% inhibitory concentration (IC50) in assay [1] and in assay [2] was over 100 nM in each case.
In the case of `OC(COc1ccccc1Cl)CSc1nnnn1-c1cccc2ccccc12` (centres unmarked) [Entry 325], the IC50 in assay [1] and in assay [2] was over 100 nM each time.
For the molecule `COC(=O)c1ccc(NC(=O)CSc2ccccc2-c2ccc(C)cc2Cl)c(Cl)c1` [Entry 418], the results for the IC50 in assay [1] and in assay [2] were under 50 nM and over 100 nM, respectively. Besides, the EC50 in assay [3] was 50 to 100 nM.
Regarding `Cc1ccc(-n2nnnc2SCC(=O)Nc2ccccc2Cl)c(Cl)c1` [Entry 501], the EC50 in assay [3] was under 50 nM; in assay [4], over 100 nM.
`O=C(CSc1nnnn1-c1cccc2ccccc12)Nc1ccccc1` [Entry 201]: the IC50 in assay [1] and in assay [2] was over 100 nM throughout.
In the case of `Cc1ccc(NC(=O)CSc2nnnn2-c2ccc(C)cc2Cl)c(Cl)c1` [Entry 502], the values for the half-maximal inhibitory concentration (IC50) in assay [1] and in assay [2] were under 50 nM and over 100 nM, respectively. For the same molecule, the EC50 in assay [3] was under 50 nM.
As for `COC(=O)c1ccc(NC(=O)CSc2nnnn2-c2ccc(C)cc2Cl)c([N+](=O)[O-])c1` [Entry 506], the half-maximal inhibitory concentration (IC50) in assay [1] was under 50 nM; in assay [2], over 100 nM.
For `COc1ccc(NC(=O)CSc2nnnn2-c2cccc3ccccc23)c(Cl)c1` [Entry 237], the half-maximal inhibitory concentration (IC50) in assay [1] was under 50 nM; in assay [2] it was over 100 nM. This molecule also returned an EC50 in assay [3] of under 50 nM.
On to `O=C(CSc1nnnn1-c1ccccc1)Nc1ccccc1[N+](=O)[O-]` [Entry 108], for which the IC50 in assay [1] and in assay [2] was over 100 nM each time.
With `Cc1ccc(C)c(NC(=O)CSc2nnnn2-c2cccc3ccccc23)c1` [Entry 240], the IC50 in assay [1] and in assay [2] was over 100 nM each time.
Regarding `O=C(CSc1nnnn1-c1ccc(Cl)c(C(F)(F)F)c1)Nc1ccccc1[N+](=O)[O-]` [Entry 137], the IC50 in assay [1] and in assay [2] was over 100 nM in each case.
Take `Cc1ccc(-n2nnnc2SCC(=O)Nc2ccccc2Cl)c(Br)c1` [Entry 701]: the IC50 in assay [1] is under 50 nM; in assay [2] it was over 100 nM.
In the case of `Cc1ccc(-c2ccccc2SCC(=O)Nc2ccc(C(=O)O)cc2Cl)c(Cl)c1` [Entry 419], the IC50 in assay [1] was under 50 nM; in assay [2] it was over 100 nM. Further, the EC50 in assay [3] was in the range of 50 to 100 nM.
Turning to `O=C(COc1ccccc1-c1ccccc1)Nc1ccccc1[N+](=O)[O-]` [Entry 413], the IC50 in assay [1] and in assay [2] was over 100 nM in each case.
As for `O=C(CSc1nc2ccccc2n1-c1cccc2ccccc12)Nc1ccccc1[N+](=O)[O-]` [Entry 411], the IC50 in assay [1] and in assay [2] was over 100 nM in each case.
For the molecule `O=C(CSc1nnnn1-c1ccc(Cl)cc1Cl)Nc1ccccc1[N+](=O)[O-]` [Entry 126], the IC50 in assay [1] and in assay [2] was over 100 nM in each case.
As for `O=C(CSc1ccccc1-c1cccc2ccccc12)Nc1ccccc1Cl` [Entry 406, 2-{{2-(1-Naphthalenyl)phenyl}thio}-N-(2-chorophenyl)acetamide], the IC50 in assay [1] was under 50 nM; in assay [2] it was over 100 nM. The EC50 in assay [3] is over 100 nM.
Turning to `Cc1ccccc1NC(=O)CSc1nnnn1-c1cccc2ccccc12` [Entry 202], the IC50 in assay [1] and in assay [2] was over 100 nM each time.
`CC(C)c1ccccc1-n1nnnc1SCC(=O)Nc1ccccc1[N+](=O)[O-]` [Entry 112]: the IC50 in assay [1] and in assay [2] was over 100 nM throughout.
`O=C(CSc1nnnn1-c1cccc(Cl)c1)Nc1ccccc1[N+](=O)[O-]` [Entry 119]: the IC50 in assay [1] and in assay [2] was over 100 nM in each case.
Regarding `O=C(COCc1nnnn1-c1cccc2ccccc12)Nc1ccccc1[N+](=O)[O-]` [Entry 336], the IC50 in assay [1] was over 100 nM.
For `O=C(CSc1nnnn1-c1cccc2ccccc12)Nc1ccccc1-c1ccccc1` [Entry 206], the 50% inhibitory concentration (IC50) in assay [1] was over 100 nM.
The same measure, in the same setting: for `O=C(CCCc1nnnn1-c1cccc2ccccc12)Nc1ccccc1[N+](=O)[O-]` [Entry 306] the value was over 100 nM; for `O=C(CSc1nc2ccccc2n1-c1ccccc1)Nc1ccccc1[N+](=O)[O-]` [Entry 412], over 100 nM; for `O=C(CNc1nnnn1-c1cccc2ccccc12)Nc1ccccc1[N+](=O)[O-]` [Entry 303], over 100 nM.

The record behind these values is patent publication US7642277B2, “Non-nucleoside reverse transcriptase inhibitors” (Boehringer Ingelheim International GmbH, priority 2002, dated 2010).
